Each structure is given as a SMILES string. pIC50: −log10 of the molar value.

Among the data in patent publication US8710038B2, “Pyrazole kinase modulators and methods of use” (Exelixis, Inc., priority 2004, dated 2014) are IC50 values, retold here.

The target of one assay is c-Kit (Homo sapiens, UniProt P10721). The experiment in a line: c-Kit biochemical assay (AlphaScreen). The essentials:
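Kinase, compound, ATP and biotinylated poly(Glu,Tyr) 4:1 reacted 1 hr at ambient temperature; quenched with EDTA buffer (pH 7.4) containing streptavidin donor and anti-phosphotyrosine PY100 acceptor beads, incubated 16 hr, then AlphaScreen signal read to give IC50.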
On the technique in general: Alpha assays give light when donor and acceptor beads are brought close together.

The target of another assay is T1, flt-3 (Homo sapiens, UniProt P36888).
T1 construct: baculovirus expressed human Flt-3 kinase domain R571-S993
T1 sequence (P36888 571-993): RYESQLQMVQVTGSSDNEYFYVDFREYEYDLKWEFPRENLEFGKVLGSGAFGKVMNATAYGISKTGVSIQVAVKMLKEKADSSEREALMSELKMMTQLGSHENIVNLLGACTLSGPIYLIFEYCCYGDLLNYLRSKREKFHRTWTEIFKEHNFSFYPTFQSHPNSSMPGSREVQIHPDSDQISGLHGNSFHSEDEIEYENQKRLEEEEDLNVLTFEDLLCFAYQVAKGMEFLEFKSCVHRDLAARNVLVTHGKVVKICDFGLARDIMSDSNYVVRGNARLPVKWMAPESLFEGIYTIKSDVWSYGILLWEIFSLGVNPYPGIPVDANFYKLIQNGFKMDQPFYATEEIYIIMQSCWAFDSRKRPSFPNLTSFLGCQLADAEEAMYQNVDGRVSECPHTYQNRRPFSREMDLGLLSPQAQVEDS
The experiment in a line: flt-3 Luciferase-Coupled Chemiluminescent Kinase assay (LCCA). It counts as biochemical. The essentials: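 Baculovirus-expressed human Flt-3 kinase domain (R571-S993, 5 nM) was reacted with 5 μM ATP and 3 μM poly-EY in Tris pH 7.5 buffer with MgCl2/MnCl2 for 3 h at ambient temperature. Remaining ATP was read by luciferase-luciferin chemiluminescence, with ATP consumption standardized to 25-45%, for IC50.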

A further assay concerns the target T2, EphB4 (Homo sapiens, UniProt P54760).
T2 sequence (P54760 16-987): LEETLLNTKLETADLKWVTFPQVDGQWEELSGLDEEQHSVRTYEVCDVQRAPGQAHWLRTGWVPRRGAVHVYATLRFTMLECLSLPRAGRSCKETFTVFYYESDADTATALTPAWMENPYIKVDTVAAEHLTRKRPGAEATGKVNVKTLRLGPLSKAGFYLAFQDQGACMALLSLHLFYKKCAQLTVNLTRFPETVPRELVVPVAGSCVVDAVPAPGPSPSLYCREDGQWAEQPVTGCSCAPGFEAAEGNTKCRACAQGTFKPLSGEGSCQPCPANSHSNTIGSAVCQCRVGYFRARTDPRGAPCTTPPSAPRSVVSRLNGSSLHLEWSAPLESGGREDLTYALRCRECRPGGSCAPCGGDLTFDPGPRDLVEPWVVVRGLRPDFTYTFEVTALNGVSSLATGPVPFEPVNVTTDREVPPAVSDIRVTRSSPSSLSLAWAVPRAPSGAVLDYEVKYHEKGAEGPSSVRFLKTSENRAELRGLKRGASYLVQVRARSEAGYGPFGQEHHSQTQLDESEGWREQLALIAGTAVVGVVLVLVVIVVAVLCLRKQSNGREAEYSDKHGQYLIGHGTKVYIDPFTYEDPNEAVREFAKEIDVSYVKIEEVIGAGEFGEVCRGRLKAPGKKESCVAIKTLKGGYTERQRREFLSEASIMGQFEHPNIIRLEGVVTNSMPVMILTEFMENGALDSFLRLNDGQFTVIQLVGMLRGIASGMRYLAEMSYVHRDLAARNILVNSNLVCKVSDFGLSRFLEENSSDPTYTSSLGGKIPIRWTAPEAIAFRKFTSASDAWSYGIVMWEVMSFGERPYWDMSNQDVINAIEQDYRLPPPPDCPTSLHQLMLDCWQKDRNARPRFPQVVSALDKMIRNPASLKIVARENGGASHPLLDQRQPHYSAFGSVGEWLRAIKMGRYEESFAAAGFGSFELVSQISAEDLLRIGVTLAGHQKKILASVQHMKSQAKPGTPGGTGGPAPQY
The experiment in a line: EphB4 kinase inhibition assay. The format is biochemical. Summed up: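 ATP near each kinase's KM; 10-point dose-response fitted to a four-parameter equation for IC50. Formats: γ33P-ATP transfer to plate-coated substrate (1.5-2.5 h, ambient, scintillation), luciferase-coupled ATP-consumption read-out (2-4 h, 25-45% ATP consumed), or AlphaScreen with biotinylated poly(Glu,Tyr) 4:1 (1 h).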

The target in the next assay is EGFR (Homo sapiens, UniProt P00533). The assay can be described thus: EGFR kinase inhibition assay. It counts as biochemical.
Chain of EGFR (P00533 25-1210, species assumed): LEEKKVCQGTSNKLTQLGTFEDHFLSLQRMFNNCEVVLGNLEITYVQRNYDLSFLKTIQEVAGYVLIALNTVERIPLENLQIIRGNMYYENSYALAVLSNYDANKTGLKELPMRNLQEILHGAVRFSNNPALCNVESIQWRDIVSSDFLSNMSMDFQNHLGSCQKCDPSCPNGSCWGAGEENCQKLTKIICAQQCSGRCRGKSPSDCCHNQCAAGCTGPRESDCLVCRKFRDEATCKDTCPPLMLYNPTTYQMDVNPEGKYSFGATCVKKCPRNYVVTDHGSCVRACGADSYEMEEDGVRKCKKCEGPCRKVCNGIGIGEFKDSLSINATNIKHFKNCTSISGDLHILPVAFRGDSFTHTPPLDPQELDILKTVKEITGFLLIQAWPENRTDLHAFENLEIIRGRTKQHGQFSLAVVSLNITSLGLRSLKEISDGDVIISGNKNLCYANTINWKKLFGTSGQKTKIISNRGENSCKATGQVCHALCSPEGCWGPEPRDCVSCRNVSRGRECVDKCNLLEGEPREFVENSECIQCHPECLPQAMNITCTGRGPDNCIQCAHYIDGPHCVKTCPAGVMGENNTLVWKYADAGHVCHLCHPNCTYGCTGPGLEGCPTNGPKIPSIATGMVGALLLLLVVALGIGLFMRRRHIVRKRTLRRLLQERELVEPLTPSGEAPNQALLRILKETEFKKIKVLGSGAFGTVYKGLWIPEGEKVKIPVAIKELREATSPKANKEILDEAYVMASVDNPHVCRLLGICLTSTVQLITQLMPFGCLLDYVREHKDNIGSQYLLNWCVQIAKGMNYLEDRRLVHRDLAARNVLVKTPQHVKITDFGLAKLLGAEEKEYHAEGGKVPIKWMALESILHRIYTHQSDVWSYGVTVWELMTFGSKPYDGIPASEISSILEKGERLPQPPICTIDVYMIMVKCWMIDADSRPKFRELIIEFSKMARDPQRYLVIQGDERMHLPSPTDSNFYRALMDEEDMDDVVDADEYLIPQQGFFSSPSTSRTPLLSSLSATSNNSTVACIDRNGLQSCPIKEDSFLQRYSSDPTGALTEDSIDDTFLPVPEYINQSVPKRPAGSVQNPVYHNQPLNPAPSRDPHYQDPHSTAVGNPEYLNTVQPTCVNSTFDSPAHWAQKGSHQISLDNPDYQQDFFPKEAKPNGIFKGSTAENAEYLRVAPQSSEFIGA

Chain of c-Kit (P10721 26-976): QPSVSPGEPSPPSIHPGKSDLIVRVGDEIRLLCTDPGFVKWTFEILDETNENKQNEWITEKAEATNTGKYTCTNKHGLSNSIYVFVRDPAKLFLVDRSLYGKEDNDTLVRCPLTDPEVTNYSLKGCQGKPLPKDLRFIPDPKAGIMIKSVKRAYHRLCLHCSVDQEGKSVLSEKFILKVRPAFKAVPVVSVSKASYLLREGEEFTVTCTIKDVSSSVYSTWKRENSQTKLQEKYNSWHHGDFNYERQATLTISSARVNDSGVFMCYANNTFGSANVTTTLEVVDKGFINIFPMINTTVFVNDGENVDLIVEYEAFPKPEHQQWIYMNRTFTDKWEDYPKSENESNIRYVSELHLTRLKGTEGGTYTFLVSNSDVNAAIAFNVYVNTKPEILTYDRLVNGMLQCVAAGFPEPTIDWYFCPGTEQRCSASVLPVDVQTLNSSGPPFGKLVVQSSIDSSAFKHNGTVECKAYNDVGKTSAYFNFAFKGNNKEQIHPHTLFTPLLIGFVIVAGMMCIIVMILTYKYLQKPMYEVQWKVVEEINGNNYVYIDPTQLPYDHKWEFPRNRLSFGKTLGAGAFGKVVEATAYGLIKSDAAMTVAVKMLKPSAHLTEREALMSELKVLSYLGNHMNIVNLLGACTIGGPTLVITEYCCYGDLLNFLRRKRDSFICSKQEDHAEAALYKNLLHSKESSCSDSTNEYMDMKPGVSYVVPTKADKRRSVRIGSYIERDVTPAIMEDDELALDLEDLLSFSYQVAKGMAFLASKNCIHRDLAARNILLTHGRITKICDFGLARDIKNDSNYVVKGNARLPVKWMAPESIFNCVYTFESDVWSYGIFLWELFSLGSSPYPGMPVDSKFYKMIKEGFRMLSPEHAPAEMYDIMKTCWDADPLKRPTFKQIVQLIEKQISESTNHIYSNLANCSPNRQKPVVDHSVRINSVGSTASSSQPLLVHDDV

For the molecule `CN1CCN(c2ccc3[nH]c(-c4cc(-c5ccc(NC(=O)Nc6ccc(F)c(F)c6)cc5)[nH]n4)nc3c2)CC1` [Entry 25, N-(3,4-difluorophenyl)-N′-(4-{3-[5-(4-methylpiperazin-1-yl)-1H-benzimidazol-2-yl]-1H-pyrazol-5-yl}phenyl)urea], the pIC50 against c-Kit was > 7.30; against flt-3, > 7.30; against EphB4, < 5.30; on EGFR, < 5.30.
On to `CCN1CCN(c2ccc3nc(-c4cc(-c5ccc(NC(=O)Nc6ccc(F)cc6F)cc5)[nH]n4)[nH]c3c2)CC1` [Entry 29, N-(2,4-difluorophenyl)-N′-(4-{3-[6-(4-ethylpiperazin-1-yl)-1H-benzimidazol-2-yl]-1H-pyrazol-5-yl}phenyl)urea], for which the pIC50 is > 7.30 at c-Kit, > 7.30 at flt-3, < 5.30 at EphB4 and < 5.30 against EGFR.
Regarding `O=C(Nc1ccc(-c2cc(-c3nc4ccccc4[nH]3)n[nH]2)cc1)Nc1ccc(Cl)c(C(F)(F)F)c1` [Entry 30, N-{4-[3-(1H-benzimidazol-2-yl)-1H-pyrazol-5-yl]phenyl}-N′-[4-chloro-3-(trifluoromethyl)phenyl]urea], the pIC50 was > 7.30 at c-Kit, > 7.30 on flt-3, < 5.30 at EphB4 and < 5.30 on EGFR.
Consider `O=C(Nc1ccc(-c2cc(-c3nc4ccccc4[nH]3)n[nH]2)cc1)Nc1cc(C(F)(F)F)ccc1F` [Entry 31, N-{4-[3-(1H-benzimidazol-2-yl)-1H-pyrazol-5-yl]phenyl}-N′-[2-fluoro-5-(trifluoromethyl)phenyl]urea], for which the pIC50 against c-Kit is > 7.30; at flt-3, > 7.30; on EphB4 it was < 5.30; at EGFR it was < 5.30.
For `CN1CCN(c2ccc3[nH]c(-c4cc(-c5ccc(NC(=O)Nc6ccc(F)cc6F)cc5)[nH]n4)nc3c2)CC1` [Entry 32, N-(2,4-difluorophenyl)-N′-(4-{3-[5-(4-methylpiperazin-1-yl)-1H-benzimidazol-2-yl]-1H-pyrazol-5-yl}phenyl)urea], the pIC50 at c-Kit is > 7.30; against flt-3, > 7.30; at EphB4, < 5.30; against EGFR it was < 5.30.
Take `CN1CCN(c2ccc3[nH]c(-c4cc(-c5ccc(NC(=O)Nc6cc(C(F)(F)F)cc(C(F)(F)F)c6)cc5)[nH]n4)nc3c2)CC1` [Entry 34, N-[3,5-bis(trifluoromethyl)phenyl]-N′-(4-{3-[5-(4-methylpiperazin-1-yl)-1H-benzimidazol-2-yl]-1H-pyrazol-5-yl}phenyl)urea]: the pIC50 against c-Kit was > 7.30; against flt-3, > 7.30; against EphB4 it was 5.30 to 6.30; on EGFR, < 5.30.
`CN1CCN(c2ccc3[nH]c(-c4cc(-c5ccc(NC(=O)Nc6ccccc6F)cc5)[nH]n4)nc3c2)CC1` [Entry 35, N-(2-fluorophenyl)-N′-(4-{3-[5-(4-methylpiperazin-1-yl)-1H-benzimidazol-2-yl]-1H-pyrazol-5-yl}phenyl)urea]: the pIC50 is > 7.30 at c-Kit, > 7.30 at flt-3, < 5.30 against EphB4 and < 5.30 on EGFR.
Turning to `Oc1ccc(/C=C/c2cc(/C=C/c3ccccc3)[nH]n2)cc1` [Entry 36, 4-((E)-2-{5-[(E)-2-phenylethenyl]-1H-pyrazol-3-yl}ethenyl)phenol], the pIC50 is > 7.30 at c-Kit, > 7.30 against flt-3, < 5.30 against EphB4 and < 5.30 against EGFR.
With `COc1cc(/C=C/c2cc(/C=C/c3ccccc3)[nH]n2)ccc1O` [Entry 37, 2-(methyloxy)-4-((E)-2-{5-[(E)-2-phenylethenyl]-1H-pyrazol-3-yl}ethenyl)phenol], the negative logarithm of the IC50 (pIC50) at c-Kit is > 7.30; against flt-3, > 7.30; against EphB4, 5.30 to 6.30; on EGFR, < 5.30.
On to `CN1CCN(c2ccc3[nH]c(-c4cc(-c5ccc(NC(=O)Nc6ccccc6)cc5)[nH]n4)nc3c2)CC1` [Entry 39, N-(4-{3-[5-(4-methylpiperazin-1-yl)-1H-benzimidazol-2-yl]-1H-pyrazol-5-yl}phenyl)-N′-phenylurea], for which the pIC50 at c-Kit was 6.30 to 7.30; on flt-3, > 7.30; at EphB4 it was < 5.30; against EGFR, < 5.30.
Turning to `CN1CCN(c2ccc(-c3cc(-c4ccc(NC(=O)Nc5ccc(F)cc5F)cc4)[nH]n3)cc2)CC1` [Entry 41, N-(2,4-difluorophenyl)-N′-(4-{3-[4-(4-methylpiperazin-1-yl)phenyl]-1H-pyrazol-5-yl}phenyl)urea], the pIC50 is 6.30 to 7.30 at c-Kit, > 7.30 on flt-3, < 5.30 against EphB4 and < 5.30 against EGFR.
Consider `CN1CCN(c2ccc(-c3cc(-c4ccc(NC(=O)Nc5ccc6c(c5)OCCO6)cc4)n[nH]3)cc2)CC1` [Entry 42, N-(2,3-dihydro-1,4-benzodioxin-6-yl)-N′-(4-{5-[4-(4-methylpiperazin-1-yl)phenyl]-1H-pyrazol-3-yl}phenyl)urea], for which the pIC50 was 6.30 to 7.30 against c-Kit, > 7.30 against flt-3, < 5.30 at EphB4 and < 5.30 against EGFR.
Take `COc1cc(/C=C/c2cc(/C=C/c3ccc(F)cc3)n[nH]2)ccc1O` [Entry 44, 4-((E)-2-{3-[(E)-2-(4-fluorophenyl)ethenyl]-1H-pyrazol-5-yl}ethenyl)-2-(methyloxy)phenol]: the pIC50 against c-Kit is 6.30 to 7.30; at flt-3, > 7.30; against EphB4 it was < 5.30; on EGFR it was < 5.30.
As to `Oc1ccc(/C=C/c2cc(-c3cc4ccccc4o3)n[nH]2)cc1` [Entry 45, 4-{(E)-2-[3-(1-benzofuran-2-yl)-1H-pyrazol-5-yl]ethenyl}phenol], the pIC50 on c-Kit is 6.30 to 7.30; on flt-3, 6.30 to 7.30; against EphB4, < 5.30; against EGFR, < 5.30.
Consider `CN1CCN(c2ccc(-c3cc(-c4ccc(NC(=O)C(=O)NCCc5ccccc5)cc4)[nH]n3)cc2)CC1` [Entry 46, N-(4-{3-[4-(4-methylpiperazin-1-yl)phenyl]-1H-pyrazol-5-yl}phenyl)-N′-(2-phenylethyl)ethanediamide], for which the pIC50 is 6.30 to 7.30 at c-Kit, < 5.30 against flt-3, 5.30 to 6.30 at EphB4 and < 5.30 against EGFR.
Take `Oc1ccc(/C=C/c2cc(-c3nc4ccccc4[nH]3)n[nH]2)cc1` [Entry 47, 4-{(E)-2-[3-(1H-benzimidazol-2-yl)-1H-pyrazol-5-yl]ethenyl}phenol]: the negative logarithm of the IC50 (pIC50) against c-Kit is 6.30 to 7.30; against flt-3, > 7.30; against EphB4, 5.30 to 6.30; on EGFR, < 5.30.
As for `COc1cc(/C=C/c2cc(/C=C/c3ccc(Cl)cc3)n[nH]2)ccc1O` [Entry 48, 4-((E)-2-{3-[(E)-2-(4-chlorophenyl)ethenyl]-1H-pyrazol-5-yl}ethenyl)-2-(methyloxy)phenol], the pIC50 against c-Kit is 6.30 to 7.30; against flt-3 it was > 7.30; against EphB4, < 5.30; against EGFR, < 5.30.
For `Oc1ccc(/C=C/c2cc(-c3cc4ccccc4s3)n[nH]2)cc1` [Entry 49, 4-{(E)-2-[3-(1-benzothien-2-yl)-1H-pyrazol-5-yl]ethenyl}phenol], the negative-log IC50 (pIC50) on c-Kit is 6.30 to 7.30; against flt-3, 6.30 to 7.30; on EphB4, < 5.30; at EGFR, < 5.30.

Usually pIC50 stands for −log10 of the IC50, conventionally taken in molar units.
